Assay results published in patent US11071735B2, “Treatment of inflammatory conditions and autoimmune diseases with glucose uptake inhibitors” (Kadmon Corporation, LLC, priority 2017, dated 2021).

Assays:
Format in all cases: cell-based
GLUT = test: glycolysis assay (oligomycin + Cell Titer-Glo ATP readout) in HT1080 cells; settings: 10 μM oligomycin, one hour, glycolytically-derived ATP
Excerpt: The combination of inhibitors of both oxidative phosphorylation and glycolysis synergistically suppress cellular ATP levels. Therefore, our assay utilizes the combination of our glucose uptake inhibitors with oligomycin, a well-characterized inhibitor of ATP synthase. Because oligomycin inhibits ATP derived from oxidative phosphorylation, any remaining ATP production is derived from glycolysis. By reading out cellular ATP levels using the Promega
Titer Glo kit, we can assess the extent of glycolysis inhibition by our glucose uptake inhibitors. Using this experimental set-up in HT1080 cancer cells, we determined the IC50 of glycolysis inhibition for the compounds.
(§1) Determination of glucose uptake/GLUT activity (glycolysis assay): HT1080 cells, DLD1 cells (WT and GLUT1−/−) and human CD4+ T cells were plated in 96-well plates. Cells were exposed to the combination of 10 μM Oligomycin (to block mitochondrial-derived ATP) and the glucose uptake inhibitors disclosed herein for one-hour, after which glycolytically-derived ATP was measured with the Cell Titer-Glo assay kit (Promega). Dose-response curves of the glucose uptake inhibitors disclosed herein were used to determine the IC50 for GLUT activity.

GLUT1 = biological target: T1, GLUT1 (Homo sapiens, UniProt P11166); test: glycolysis assay in DLD1 WT cells (rely on GLUT1); settings: DLD1-WT cells; 10 μM oligomycin, one hour
T1 construct: endogenous in cells; host or cells: DLD1 WT cancer cells
T1 sequence (P11166 1-492): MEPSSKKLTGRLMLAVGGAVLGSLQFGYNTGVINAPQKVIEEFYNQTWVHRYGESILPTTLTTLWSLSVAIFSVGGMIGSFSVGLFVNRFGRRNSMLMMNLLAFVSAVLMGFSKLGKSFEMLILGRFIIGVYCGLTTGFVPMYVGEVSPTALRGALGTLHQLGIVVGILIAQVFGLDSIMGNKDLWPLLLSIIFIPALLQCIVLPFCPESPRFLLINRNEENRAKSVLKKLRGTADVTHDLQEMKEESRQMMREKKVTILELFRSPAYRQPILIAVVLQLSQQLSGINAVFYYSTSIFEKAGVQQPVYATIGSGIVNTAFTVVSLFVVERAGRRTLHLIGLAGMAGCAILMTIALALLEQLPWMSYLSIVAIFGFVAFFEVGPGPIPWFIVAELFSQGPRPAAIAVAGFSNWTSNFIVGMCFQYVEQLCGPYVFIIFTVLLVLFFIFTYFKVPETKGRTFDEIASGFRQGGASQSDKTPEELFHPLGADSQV
Description: (§2) Cells were treated with GLUT inhibitors plus oligomycin and subsequently ATP levels were determined using Cell Titer Glo. […] FIG. 1B reports the IC50 of glycolysis inhibition for selected compounds.
(§3) Accordingly, we have investigated the use of inhibitors of GLUT transporters against activated pro-inflammatory immune cells, including but not limited to activated human CD4+ T cells. In order to understand what GLUT transporters are required to sustain glycolysis in activated T cells, we first utilized the syngeneic cancer cell lines DLD1 WT and DLD GLUT1−/− that rely on GLUT1 and GLUT3 expression, respectively, for glucose transport. Within this system, we have identified small molecules that simultaneously have the property of inhibiting both GLUT1 and GLUT3 mediated glucose transport. In addition, we have confirmed the GLUT1-selective nature of a published small molecule inhibitor of GLUT1 (Chem Med Chem. 2016 Oct. 19; 11(20):2261-2271).
as §1

GLUT3 = biological target: T2, GLUT3 (Homo sapiens, UniProt P11169); test: glycolysis assay in DLD1 GLUT1−/− cells (rely on GLUT3); settings: DLD1-KO (GLUT1−/−) cells; 10 μM oligomycin, one hour
T2 construct: endogenous in cells; host or cells: DLD1 GLUT1−/− (knock-out) cancer cells
T2 sequence (P11169 1-496): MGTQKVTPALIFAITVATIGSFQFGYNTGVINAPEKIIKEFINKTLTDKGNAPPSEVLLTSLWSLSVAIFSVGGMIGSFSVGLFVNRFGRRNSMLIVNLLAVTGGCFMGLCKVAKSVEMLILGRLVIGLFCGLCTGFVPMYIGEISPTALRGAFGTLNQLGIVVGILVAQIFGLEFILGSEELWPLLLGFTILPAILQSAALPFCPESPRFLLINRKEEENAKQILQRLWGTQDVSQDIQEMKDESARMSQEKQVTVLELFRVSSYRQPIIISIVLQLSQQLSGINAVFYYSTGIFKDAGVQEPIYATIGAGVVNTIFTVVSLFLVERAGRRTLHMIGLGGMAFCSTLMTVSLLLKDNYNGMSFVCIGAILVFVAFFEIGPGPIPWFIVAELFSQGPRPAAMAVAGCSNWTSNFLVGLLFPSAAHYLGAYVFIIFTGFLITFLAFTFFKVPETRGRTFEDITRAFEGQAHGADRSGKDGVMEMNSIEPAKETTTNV
Description: as §2, §3, §1

IC50 (GLUT) | IC50 (GLUT1) | IC50 (GLUT3) | SMILES
242 nM | 52 nM | 129 nM | CCOc1ccc2nc(-c3cccc(OCC(=O)NC4CC4)c3)nc(Nc3ccc(-c4cn[nH]c4)cc3)c2c1 [Ex. 1, 2-(3-(4-((4-(1H-pyrazol-4-yl)phenyl)amino)-6-ethoxyquinazolin-2-yl)phenoxy)-N-cyclopropylacetamide]
44 nM | 59.6 nM | 33.6 nM | CCOc1ccc2nc(-c3cccc(OCC(=O)NC(C)(C)C)c3)nc(Nc3ccc(-c4cn[nH]c4)cc3)c2c1 [Ex. 3, 2-(3-(4-((4-(1H-pyrazol-4-yl)phenyl)amino)-6-ethoxyquinazolin-2-yl)phenoxy)-N-(tert-butyl)acetamide]
50 nM | 86 nM | 148 nM | CCOc1ccc2nc(-c3cccc(OCC(=O)NC(C)(C)CC)c3)nc(Nc3ccc(-c4cn[nH]c4)cc3)c2c1 [Ex. 4, 2-(3-(4-((4-(1H-pyrazol-4-yl)phenyl)amino)-6-ethoxyquinazolin-2-yl)phenoxy)-N-(tert-pentyl)acetamide]
92 nM | 81 nM | 104 nM | CCOc1ccc2nc(-c3cccc(OCC(=O)NC4CCCC4)c3)nc(Nc3ccc(-c4cn[nH]c4)cc3)c2c1 [Ex. 5, 2-(3-(4-((4-(1H-pyrazol-4-yl)phenyl)amino)-6-ethoxyquinazolin-2-yl)phenoxy)-N-cyclopentylacetamide]
141 nM | 94 nM | 120 nM | CCOc1ccc2nc(-c3cccc(OCC(=O)NC4CCC4)c3)nc(Nc3ccc(-c4cn[nH]c4)cc3)c2c1 [Ex. 6, 2-(3-(4-((4-(1H-pyrazol-4-yl)phenyl)amino)-6-ethoxyquinazolin-2-yl)phenoxy)-N-cyclobutylacetamide]
128 nM | 98 nM | 233 nM | CCOc1ccc2nc(-c3cccc(OCC(=O)NC(CC)CC)c3)nc(Nc3ccc(-c4cn[nH]c4)cc3)c2c1 [Ex. 7, 2-(3-(4-((4-(1H-pyrazol-4-yl)phenyl)amino)-6-ethoxyquinazolin-2-yl)phenoxy)-N-(pentan-3-yl)acetamide]
173 nM | 261 nM | 97.6 nM | COc1ccc2nc(-c3cccc(OCC(=O)NC(C)C)c3)nc(Nc3ccc(-c4cn[nH]c4)cc3)c2c1 [Ex. 8, 2-(3-(4-((4-(1H-pyrazol-4-yl)phenyl)amino)-6-methoxyquinazolin-2-yl)phenoxy)-N-isopropylacetamide]
367 nM | 529 nM | 76.1 nM | COc1ccc2nc(-c3cccc(OCC(=O)NC4CC4)c3)nc(Nc3ccc(-c4cn[nH]c4)cc3)c2c1 [Ex. 9, 2-(3-(4-((4-(1H-pyrazol-4-yl)phenyl)amino)-6-methoxyquinazolin-2-yl)phenoxy)-N-cyclopropylacetamide]
58.9 nM | 40.5 nM | 110 nM | COc1ccc2nc(-c3cccc(OCC(=O)NC4CCCC4)c3)nc(Nc3ccc(-c4cn[nH]c4)cc3)c2c1 [Ex. 10, 2-(3-(4-((4-(1H-pyrazol-4-yl)phenyl)amino)-6-methoxyquinazolin-2-yl)phenoxy)-N-cyclopentylacetamide]
1350 nM | 3480 nM | 325 nM | COc1ccc2nc(-c3cc(F)cc(OCC(=O)NC(C)C)c3)nc(Nc3ccc(-c4cn[nH]c4)cc3)c2c1 [Ex. 11, 2-(3-(4-((4-(1H-pyrazol-4-yl)phenyl)amino)-6-methoxyquinazolin-2-yl)-5-fluorophenoxy)-N-isopropylacetamide]
248 nM | 598 nM | 166 nM | CCCNC(=O)COc1cccc(-c2nc(Nc3ccc(-c4cn[nH]c4)cc3)c3cc(OC)ccc3n2)c1 [Ex. 12, 2-(3-(4-((4-(1H-pyrazol-4-yl)phenyl)amino)-6-methoxyquinazolin-2-yl)phenoxy)-N-propylacetamide]
54 nM | 86.9 nM | 38.9 nM | COc1ccc2nc(-c3cccc(OCC(=O)NC(C)(C)C)c3)nc(Nc3ccc(-c4cn[nH]c4)cc3)c2c1 [Ex. 13, 2-(3-(4-((4-(1H-pyrazol-4-yl)phenyl)amino)-6-methoxyquinazolin-2-yl)phenoxy)-N-(tert-butyl)acetamide]
189 nM | 47 nM | 134 nM | COc1ccc2nc(-c3cccc(OCC(=O)NCC(C)C)c3)nc(Nc3ccc(-c4cn[nH]c4)cc3)c2c1 [Ex. 14, 2-(3-(4-((4-(1H-pyrazol-4-yl)phenyl)amino)-6-methoxyquinazolin-2-yl)phenoxy)-N-isobutylacetamide]
183 nM | 352 nM | 86.6 nM | COc1ccc2nc(-c3cccc(OCC(=O)NC4CC(F)(F)C4)c3)nc(Nc3ccc(-c4cn[nH]c4)cc3)c2c1 [Ex. 15, 2-(3-(4-((4-(1H-pyrazol-4-yl)phenyl)amino)-6-methoxyquinazolin-2-yl)phenoxy)-N-(3,3-difluorocyclobutyl)acetamide]
166 nM | 334 nM | 92.2 nM | CCOc1ccc2nc(-c3cccc(OCC(=O)NCC(C)C)c3)nc(Nc3ccc(-c4cn[nH]c4)cc3)c2c1 [Ex. 17, 2-(3-(4-((4-(1H-pyrazol-4-yl)phenyl)amino)-6-ethoxyquinazolin-2-yl)phenoxy)-N-isobutylacetamide]
89 nM | 99.5 nM | 43.9 nM | CCOc1ccc2nc(-c3cccc(OCC(=O)NC(C)CC)c3)nc(Nc3ccc(-c4cn[nH]c4)cc3)c2c1 (stereo not drawn) [Ex. 18, 2-(3-(4-((4-(1H-pyrazol-4-yl)phenyl)amino)-6-ethoxyquinazolin-2-yl)phenoxy)-N-(sec-butyl)acetamide]
169 nM | 257 nM | 66.1 nM | CCOc1ccc2nc(-c3cccc(OCC(=O)NC4CC(F)(F)C4)c3)nc(Nc3ccc(-c4cn[nH]c4)cc3)c2c1 [Ex. 19, 2-(3-(4-((4-(1H-pyrazol-4-yl)phenyl)amino)-6-ethoxyquinazolin-2-yl)phenoxy)-N-(3,3-difluorocyclobutyl)acetamide]
408 nM | 786 nM | 248 nM | CCOc1ccc2nc(-c3cccc(OCC(=O)NC(C)C)c3)nc(Nc3ccc(-c4cn[nH]c4)cc3F)c2c1 [Ex. 21, 2-(3-(6-ethoxy-4-((2-fluoro-4-(1H-pyrazol-4-yl)phenyl)amino)quinazolin-2-yl)phenoxy)-N-isopropylacetamide]

SMILES | IC50 (GLUT) | IC50 (GLUT1) | IC50 (GLUT3)
CCCNC(=O)COc1cccc(-c2nc(Nc3ccc(-c4cn[nH]c4)cc3)c3cc(OCC)ccc3n2)c1 [Ex. 16, 2-(3-(4-((4-(1H-pyrazol-4-yl)phenyl)amino)-6-ethoxyquinazolin-2-yl)phenoxy)-N-propylacetamide] | 536 nM | 1020 nM | 127 nM
COc1ccc2nc(-c3cccc(OCC(=O)NC(C)C)c3)nc(Nc3ccc(-c4cn[nH]c4)cc3F)c2c1 [Ex. 20, 2-(3-(4-((2-fluoro-4-(1H-pyrazol-4-yl)phenyl)amino)-6-methoxyquinazolin-2-yl)phenoxy)-N-isopropylacetamide] | 423 nM | 709 nM | 177 nM
